The test system of series [1] is Mycobacterium tuberculosis (Mtb) bacilli, strain H37Ra. The series can be described thus: Phenotypic assay of O2 consumption rate (OCR), Test 4, Seahorse XFe96, with Compound X. Particulars: after Compound X 0.9 μM, test compound 10 μM and uncoupler CCCP 1 μM.
The subject of the next series is rNaCH. The series can be described thus: Cardio tox rNaCH. The source says: (§1) The compounds of the invention/examples may have advantages associated with in vitro potency, kill kinetics (i.e. bactericidal effect) in vitro, PK properties, food effect, safety/toxicity (including liver toxicity, coagulation, 5-LO oxygenase), metabolic stability, Ames II negativity, MNT negativity, aqueous based solubility (and ability to formulate) and/or cardiovascular effect e.g. on animals (e.g. anesthetized guinea pig). The data below that was generated/calculated may be obtained using standard methods/assays, for instance that are available in the literature or which may be performed by a supplier (e.g. Microsomal Stability Assay—Cyprotex, Mitochondrial toxicity (Glu/Gal) assay—Cyprotex, as well as literature CYP cocktail inhibition assays).

The test system of series [2] is Mitochondrial toxicity (Glu/Gal). The series can be described thus: Mitochondrial toxicity (Glu/Gal) assay. Format: cell-based. Particulars: for Mitotoxicity Score: Glu/Gal assay, <3 indicates no mitotoxicity alerts.
Description: as §1
Compounds of the invention/examples, may therefore have the advantage that: • No in vitro cardiotoxicity is observed (for example either due to the CVS results or due to the Glu/Gal assay results, for instance low mitotoxicity (<3 in the Glu/Gal assay indicates no mitotoxicity alerts); and/or • No reactive metabolite formation is observed (e.g. GSH);

The next series has as its system rCaCH. Put plainly: Cardio tox rCaCH. To be noted: read-out: Cardio tox rCaCH (pIC50) (converted).
Description: as §1

The target of a further series is hERG(DOF) (Homo sapiens, UniProt Q12809). The series can be described thus: Cardio tox hERG(DOF).
Chain of hERG(DOF) (Q12809 whole entry): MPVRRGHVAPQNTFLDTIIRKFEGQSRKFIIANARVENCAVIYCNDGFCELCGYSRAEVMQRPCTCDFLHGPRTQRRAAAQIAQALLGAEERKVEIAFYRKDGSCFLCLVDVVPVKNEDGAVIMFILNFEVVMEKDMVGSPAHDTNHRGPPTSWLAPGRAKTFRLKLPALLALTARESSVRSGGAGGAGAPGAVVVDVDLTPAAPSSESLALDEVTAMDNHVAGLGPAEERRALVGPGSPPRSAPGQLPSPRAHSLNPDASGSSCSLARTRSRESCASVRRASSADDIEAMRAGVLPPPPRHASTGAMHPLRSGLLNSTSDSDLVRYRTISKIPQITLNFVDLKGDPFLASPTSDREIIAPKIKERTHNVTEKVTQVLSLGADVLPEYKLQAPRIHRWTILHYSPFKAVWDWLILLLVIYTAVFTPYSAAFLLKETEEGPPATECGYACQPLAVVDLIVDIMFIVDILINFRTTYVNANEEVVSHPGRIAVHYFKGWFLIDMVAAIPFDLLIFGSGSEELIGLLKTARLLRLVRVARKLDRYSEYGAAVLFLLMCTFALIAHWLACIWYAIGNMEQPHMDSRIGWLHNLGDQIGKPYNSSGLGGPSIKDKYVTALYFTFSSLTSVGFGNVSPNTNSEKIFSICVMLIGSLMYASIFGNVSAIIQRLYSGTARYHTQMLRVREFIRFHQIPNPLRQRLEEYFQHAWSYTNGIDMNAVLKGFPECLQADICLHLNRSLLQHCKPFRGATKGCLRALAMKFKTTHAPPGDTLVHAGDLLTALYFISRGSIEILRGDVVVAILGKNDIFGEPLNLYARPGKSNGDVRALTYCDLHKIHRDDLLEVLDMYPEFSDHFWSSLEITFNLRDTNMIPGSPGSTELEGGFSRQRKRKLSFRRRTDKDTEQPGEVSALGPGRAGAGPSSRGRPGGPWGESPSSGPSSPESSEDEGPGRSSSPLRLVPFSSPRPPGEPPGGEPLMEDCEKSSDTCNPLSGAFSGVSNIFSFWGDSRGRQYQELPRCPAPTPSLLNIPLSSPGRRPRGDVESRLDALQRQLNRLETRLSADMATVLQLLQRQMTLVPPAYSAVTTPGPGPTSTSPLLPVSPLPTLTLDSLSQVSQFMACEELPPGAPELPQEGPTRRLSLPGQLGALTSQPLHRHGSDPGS
Description: as §1
(The hERG channel carries a current that helps repolarise heart muscle cells.)

The subject of series [3] is Mycobacterium tuberculosis strain H37Rv ΔctaE-ΔqcrCAB. Put plainly: microbe, parasite or virus in culture. Format: cell-based. Particulars: 240 h.

Usually melting point stands for the temperature, or range, at which the solid turns liquid.

Values joined by “and” are separate entries in the source; they are usually repeats but may differ in a detail not shown here. Equal values may be shown once. Read-outs that look alike come from different tables or passages of the source.

For the compound `Cc1c(-c2ccc3cc(-c4cccc(OC(F)(F)F)c4)nn3c2)[nH]c2ccccc2c1=O` [Compound 1], the melting point amounted to 243.7 °C. Also, the “(ii) % OCR after cccp” value in series [1] stood at 93.2%. The compound further had an IC50 in the series with rNaCH of 3.02 µM. Moreover, the “Mitotoxicity Score” value in series [2] is given as “positive”. Besides, the IC50 in the series on rCaCH was 3.5 µM. The same compound showed an IC50 against hERG(DOF) of 3.98 µM. In addition, in series [3], the IC50 is 27.8 µM.

Turning to `Cc1c(-c2ccc3nc(Cc4ccc(OC(F)(F)F)cc4)cn3c2)[nH]c2ccccc2c1=O` [Compound 2], the melting point was 244.8 °C. For the same compound, the “(ii) % OCR after cccp” value in series [1] worked out at 112.0%. Further, in the series on rNaCH, the IC50 was 2.6 µM. Further, the “Mitotoxicity Score” value in series [2] is listed as “positive”. Besides, in the series with rCaCH, the IC50 is over 10 µM. The IC50 at hERG(DOF) was found to be 1.8 µM. Moreover, the IC50 in series [3] was 91.8 µM.

`Cc1c(-c2ccc3cc(-c4cccc(OC(F)(F)F)c4)cn3c2)[nH]c2ccccc2c1=O` [Compound 3] yielded a melting point of 257.8 °C. The “(ii) % OCR after cccp” value in series [1] is 196.1% and 131.0%. Also, the IC50 in the series with rNaCH was determined as 1.9 µM. In addition, the “Mitotoxicity Score” value in series [2] is given as “negative”. In addition, the IC50 in the series on rCaCH was over 10 µM. This compound had an IC50 at hERG(DOF) of over 10 µM. In series [3], the IC50 was over 100 µM.

In the case of `Cc1c(-c2ccc3nc(-c4ccccc4)cn3c2)[nH]c2ccccc2c1=O` [Compound 4], the melting point was 337.2 °C. Moreover, the “(ii) % OCR after cccp” value in series [1] is given as 144.1%. In series [3], this compound showed an IC50 of over 100 µM.

The compound `Cc1c(-c2ccc3nc(-c4cccc(OC(F)(F)F)c4)cn3c2)[nH]c2ccccc2c1=O` [Compound 5] came in with a melting point of 229.9 °C. Further, the “(ii) % OCR after cccp” value in series [1] is 159.3%. The IC50 with rNaCH turned out to be 3.8 µM. In the series with rCaCH, the IC50 is over 10 µM. This compound also gave an IC50 against hERG(DOF) of over 10 µM. In series [3], this compound showed an IC50 of over 100 µM.

Regarding `CCc1nc2ccc(-c3[nH]c4ccccc4c(=O)c3C)cn2c1C(=O)NCc1ccc(OC(F)(F)F)cc1` [Compound 7], the “(ii) % OCR after cccp” value in series [1] is given as 110.6%. In series [2], the “Mitotoxicity Score” value is recorded as “negative”.

With `Cc1c(-c2ccc3cc(-c4cccc(OC(F)(F)F)c4)nn3c2)[nH]c2ccccc2c1=O` [Compound 8], the “(ii) % OCR after cccp” value in series [1] worked out at 93.125%. In addition, the “Mitotoxicity Score” value in series [2] is reported as “positive”. In addition, the IC50 was 10.8 µM in series [2] (galactose medium, read-out: IC50, gal) and at least 200 µM in series [2] (glucose medium, read-out: IC50, glu).

These data come from patent US20220372033A1, “ANTIBACTERIAL COMPOUNDS” (Janssen Sciences Ireland Unlimited Company, priority 2019, published 2022).
